Our source for the inhibition and melting point values is US20070249620A1, “Urea Derivative” (priority 2004, published 2007).

For data set [1], the target named is T1, mouse DGAT1 (Mus musculus, UniProt Q9Z2A7).
T1 construct: made in house; host or cells: insect cells (High Five, Sf9, Sf21, etc.), baculovirus expression system (Invitrogen)
T1 sequence (Q9Z2A7 1-498): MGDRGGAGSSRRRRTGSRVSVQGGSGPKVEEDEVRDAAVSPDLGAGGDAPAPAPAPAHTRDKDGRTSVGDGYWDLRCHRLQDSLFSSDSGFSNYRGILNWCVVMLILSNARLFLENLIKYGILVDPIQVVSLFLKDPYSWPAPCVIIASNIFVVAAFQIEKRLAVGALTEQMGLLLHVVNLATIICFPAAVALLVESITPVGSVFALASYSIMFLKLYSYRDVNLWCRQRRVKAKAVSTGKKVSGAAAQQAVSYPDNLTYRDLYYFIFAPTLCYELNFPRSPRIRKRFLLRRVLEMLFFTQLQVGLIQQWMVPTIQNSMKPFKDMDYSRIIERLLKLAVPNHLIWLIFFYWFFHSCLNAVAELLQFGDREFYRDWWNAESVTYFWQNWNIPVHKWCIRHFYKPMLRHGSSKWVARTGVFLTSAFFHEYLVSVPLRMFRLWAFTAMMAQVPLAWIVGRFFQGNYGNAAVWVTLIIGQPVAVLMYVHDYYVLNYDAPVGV
Nature of the data set: DGAT1 inhibitory effect test (microsome fraction, [14C]-oleoyl-CoA, triglyceride radioactivity by TLC). The format is biochemical. As to conditions: 0.5 h; concentration of the test compound 0.1 μg/ml; mouse DGAT1 microsomes, 23° C., 30 minutes; read-out: Inhibitory ratio. A digest of the protocol:
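Baculovirus-expressed mouse DGAT1 insect-cell microsomes (10 μg) were incubated 30 min at 23 °C, pH 8.0, with 0.5 mM 1,2-dioleoyl-sn-glycerol, 30 μM [14C]-oleoyl-CoA and 0.5% Triton X-100. [14C]-triglyceride was quantified after heptane extraction and TLC. Percent inhibition was taken against vehicle control, with 0-min background subtracted.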

Turning to `COc1ccc(C)cc1NC(=O)Nc1ccc(N2CCN(C(=O)Nc3c(C)cccc3N)CC2)cc1` [Example 167, 4-{4-[3-(2-methoxy-5-methyl-phenyl)-ureido]-phenyl}-piperazine-1-carboxylic acid (2-amino-6-methyl-phenyl)-amide], the melting point (in general, the temperature of the solid-liquid transition) was in the range of 198 to 199 °C. The inhibition at 0.1 µg/mL in data set [1] was not below 50%.
For `COc1ccc(C)cc1NC(=O)Nc1ccc(N2CCN(C(=O)Nc3ccc(N)cc3Cl)CC2)cc1` [Example 168, 4-{4-[3-(2-methoxy-5-methyl-phenyl)-ureido]-phenyl}-piperazine-1-carboxylic acid (4-amino-2-chloro-phenyl)-amide], in that order: 226 to 228 °C and not below 50%.
On the same counts, the results for `COc1ccc(C)cc1NC(=O)Nc1ccc(N2CCN(C(=O)Nc3ccc(NC(C)=O)cc3Cl)CC2)cc1` [Example 169, 4-{4-[3-(2-methoxy-5-methyl-phenyl)-ureido]-phenyl}-piperazine-1-carboxylic acid (4-acetylamino-2-chloro-phenyl)-amide] are 155 to 157 °C and not below 50%.
Regarding `COc1ccc(C)cc1NC(=O)Nc1ccc(N2CCN(C(=O)Nc3c(C)cccc3OC)CC2)cc1` [Example 170, 4-{4-[3-(2-methoxy-5-methyl-phenyl)-ureido]-phenyl}-piperazine-1-carboxylic acid (2-methoxy-6-methyl-phenyl)-amide], the melting point lay within 200 to 203 °C. The inhibition at 0.1 µg/mL in data set [1] is not below 50%.
On the same counts, the results for `COc1ccc(C)cc1NC(=O)Nc1ccc(N2CCN(C(=O)Nc3ccc(Br)cc3C#N)CC2)cc1` [Example 171, 4-{4-[3-(2-methoxy-5-methyl-phenyl)-ureido]-phenyl}-piperazine-1-carboxylic acid (4-bromo-2-cyano-phenyl)-amide] are 149 to 151 °C and not below 50%.
On the same counts, the results for `COc1ccc(C)cc1NC(=O)Nc1ccc(N2CCN(C(=O)Nc3ccc(F)cc3C)CC2)cc1` [Example 172, 4-{4-[3-(2-methoxy-5-methyl-phenyl)-ureido]-phenyl}-piperazine-1-carboxylic acid (4-fluoro-2-methyl-phenyl)-amide] are > 270 °C (dec.) and not below 50%.
On the same counts, the results for `COc1ccc(C)cc1NC(=O)Nc1ccc(N2CCN(C(=O)Nc3ccc(NC(C)=O)cc3C(F)(F)F)CC2)cc1` [Example 173, 4-{4-[3-(2-methoxy-5-methyl-phenyl)-ureido]-phenyl}-piperazine-1-carboxylic acid (4-acetylamino-2-trifluoromethyl-phenyl)-amide] are 152 to 154 °C and not below 50%.
As for `COc1ccc(C)cc1NC(=O)Nc1ccc(N2CCN(C(=O)Nc3c(C)cc(Cl)cc3C)CC2)cc1` [Example 174, 4-{4-[3-(2-methoxy-5-methyl-phenyl)-ureido]-phenyl}-piperazine-1-carboxylic acid (4-chloro-2,6-dimethyl-phenyl)-amide], the melting point lay in the range of 238 to 240 °C. Further, in data set [1], the inhibition at 0.1 µg/mL is not below 50%.
For `COc1ccc(NC(=O)N2CCN(c3ccc(NC(=O)Nc4cc(C)ccc4OC)cc3)CC2)c(C(F)(F)F)c1` [Example 175, 4-{4-[3-(2-methoxy-5-methyl-phenyl)-ureido]-phenyl}-piperazine-1-carboxylic acid (4-methoxy-2-trifluoromethyl-phenyl)-amide], in that order: 245 to 247 °C and not below 50%.
As to `COc1ccc(C)cc1NC(=O)Nc1ccc(N2CCN(C(=O)Nc3c(C)cccc3Br)CC2)cc1` [Example 177, 4-{4-[3-(2-methoxy-5-methyl-phenyl)-ureido]-phenyl}-piperazine-1-carboxylic acid (2-bromo-6-methyl-phenyl)-amide], the melting point fell in the range of 221 to 222 °C. In addition, in data set [1], the inhibition at 0.1 µg/mL is not below 50%.
Molecule `COc1ccc(C)cc1NC(=O)Nc1ccc(N2CCN(C(=O)Nc3ccc(C(C)C)cc3C(F)(F)F)CC2)cc1` [Example 178, 4-{4-[3-(2-methoxy-5-methyl-phenyl)-ureido]-phenyl}-piperazine-1-carboxylic acid (4-isopropyl-2-trifluoromethyl-phenyl)-amide] displayed a melting point of 134 to 135 °C. Also, in data set [1], the inhibition at 0.1 µg/mL is not below 50%.
For `COc1ccc(C)cc1NC(=O)Nc1ccc(N2CCN(C(=O)Nc3c(C)cccc3C(=O)O)CC2)cc1` [Example 179, 2-[(4-{4-[3-(2-methoxy-5-methyl-phenyl)-ureido]-phenyl}-piperazine-1-carbonyl)-amino]-3-methyl-benzoic acid], in that order: 159 to 160 °C and not below 50%.
Consider `COc1ccc(C)cc1NC(=O)Nc1ccc(N2CCN(C(=O)Nc3ccc(C(=O)O)cc3C)CC2)cc1` [Example 180, 4-[(4-{4-[3-(2-methoxy-5-methyl-phenyl)-ureido]-phenyl}-piperazine-1-carbonyl)-amino]-3-methyl-benzoic acid], for which the melting point fell in the range of 178 to 180 °C. Besides, the inhibition at 0.1 µg/mL in data set [1] was not below 50%.
With `COc1ccc(C)cc1NC(=O)Nc1ccc(N2CCN(C(=O)Nc3ccc(C(=O)O)cc3Cl)CC2)cc1` [Example 181, 3-chloro-4-[(4-{4-[3-(2-methoxy-5-methyl-phenyl)-ureido]-phenyl}-piperazine-1-carbonyl)-amino]-benzoic acid], the melting point was in the range of 209 to 221 °C. Besides, the inhibition at 0.1 µg/mL in data set [1] is not below 50%.
For `CCOc1ccccc1NC(=O)Nc1ccc(N2CCN(C(=O)Nc3c(C)cccc3OC)CC2)cc1` [Example 183, 4-{4-[3-(2-ethoxy-phenyl)-ureido]-phenyl}-piperazine-1-carboxylic acid (2-methoxy-6-methyl-phenyl)-amide], in that order: 169 to 171 °C and not below 50%.
Consider `CCOc1ccc(C)cc1NC(=O)Nc1ccc(N2CCN(C(=O)Nc3c(C)cccc3OC)CC2)cc1` [Example 184, 4-{4-[3-(2-ethoxy-5-methyl-phenyl)-ureido]-phenyl}-piperazine-1-carboxylic acid (2-methoxy-6-methyl-phenyl)-amide], for which the melting point was in the range of 142 to 144 °C. In addition, in data set [1], the inhibition at 0.1 µg/mL was not below 50%.
`COc1ccc(C)cc1NC(=O)Nc1ccc(N2CCN(C(=O)Nc3c(C)cccc3CO)CC2)cc1` [Example 185, 4-{4-[3-(2-methoxy-5-methyl-phenyl)-ureido]-phenyl}-piperazine-1-carboxylic acid (2-hydroxymethyl-6-methyl-phenyl)-amide] displayed a melting point of 192 to 194 °C. The inhibition at 0.1 µg/mL in data set [1] is not below 50%.
On the same counts, the results for `COc1ccc(C)cc1NC(=O)Nc1ccc(N2CCN(C(=O)Nc3c(C)cccc3OC)CC2)nc1` [Example 186, 4-{5-[3-(2-methoxy-5-methyl-phenyl)-ureido]-pyridin-2-yl}-piperazine-1-carboxylic acid (2-methoxy-6-methyl-phenyl)-amide] are 198 to 200 °C and not below 50%.
`CCOc1ccccc1NC(=O)Nc1ccc(N2CCN(C(=O)Nc3c(C)cccc3OC)CC2)nc1` [Example 187, 4-{5-[3-(2-ethoxy-phenyl)-ureido]-pyridin-2-yl}-piperazine-1-carboxylic acid (2-methoxy-6-methyl-phenyl)-amide] yielded a melting point of 129 to 130 °C. Also, in data set [1], the inhibition at 0.1 µg/mL was not below 50%.
For `COc1ccc(C)cc1NC(=O)Nc1ccc(N2CCN(C(=O)Nc3ccc(NC(C)=O)cc3C(F)(F)F)CC2)nc1` [Example 188, 4-{5-[3-(2-methoxy-5-methyl-phenyl)-ureido]-pyridin-2-yl}-piperazine-1-carboxylic acid (4-acetylamino-2-trifluoromethyl-phenyl)-amide], the melting point fell in the range of 175 to 177 °C. In addition, the inhibition at 0.1 µg/mL in data set [1] was not below 50%.
For `COc1ccc(C)cc1NC(=O)Nc1ccc(N2CCN(C(=O)Cc3c(F)cccc3F)CC2)cc1` [Example 192, 1-(4-{4-[2-(2,6-difluoro-phenyl)-acetyl]-piperazin-1-yl}phenyl)-3-(2-methoxy-5-methyl-phenyl)-urea], in that order: 213 to 215 °C and not below 50%.
For `COc1ccc(C)cc1NC(=O)Nc1ccc(N2CCN(C(=O)Oc3c(C)cccc3Cl)CC2)cc1` [Example 197, 4-{4-[3-(2-methoxy-5-methyl-phenyl)-ureido]-phenyl}-piperazine-1-carboxylic acid 2-chloro-6-methyl-phenyl ester], in that order: 146 to 148 °C and not below 50%.
For `COc1ccc(C)cc1NC(=O)Nc1ccc(N2CCN(C(=O)Nc3c(C)cccc3Cl)C(C)C2)cc1` (stereo not shown) [Example 198, 4-{4-[3-(2-methoxy-5-methyl-phenyl)-ureido]-phenyl}-2-methyl-piperazine-1-carboxylic acid (2-chloro-6-methyl-phenyl)-amide], in that order: 161 to 163 °C and not below 50%.
